The nature of data set [1]: Stability study (three storage/solution conditions, by RP-HPLC). It counts as physicochemical. Details: key to Stability, Room Temp Dry / Stability, 30° C./65% Humidity / Stability, 37° C. H2O/pH 7.4: “+” meaning stable; “−” meaning quickly degradable. As to conditions: for Stability, Room Temp Dry: room temperature (20° C.) under inert dry gas, determined by RP-HPLC; for Stability, 30° C./65% Humidity: sealed with double bags in stability chamber. The procedure:
Compounds were tested for their stability, under three different conditions (see Table 2), by the following procedures: • 1. Room Temperature and Dry: compounds were left at the room temperature (20° C.) under inert dry gas; • 2. 30° C. and 65% Humidity: compounds sealed with double bags were put into a stability chamber. Temperature was set at 30° C. while the humidity was controlled at 65%. • 3. 37° C. pH=7.4 solution: compounds were dissolved in PBS solution and then the entire solution was submerged under a 37° C. water bath.

In data set [2] the test system is MM1.S cells. The data set can be described thus: Cell viability assay (MTS assay). It counts as cell-based. The procedure:
Cell Viability Assay 1. Cell Line
The multiple myeloma cell line MM1.S was obtained from the ATCC.
Eight thousand MM1.S cells per well were seeded in tissue culture-treated 96-well plate (Nunc) and incubated overnight.
Each well had the same DMSO concentration of 0.05%.
The effects of compounds on cell viability were assessed using CellTiter 96®A Queous One solution Reagent (Promega; G3580).
After being treated with various compounds for 72 hrs, cells in the 96-well plate were centrifuged 1000 rpm for 3 minutes, and 180 ul supernatant were removed from each well. Cells were incubated with 20 ul CellTiter 96®A Queous One solution Reagent and put into incubator with 5% CO2. at 37° C. for an additional 4 hrs. The absorbance was measured at 490 nm with Automatic Microplate reader (Infinite M1000 pro, Tecan). […] Four sets of experiments for each drug combinations were carried out. Cell viability (Percentage of Cell Survival) was calculated by the following formula: cell viability (%)=(average absorbance of treated group-average absorbance of blank)/(average absorbance of untreated group−average absorbance of blank)×100%. IC50 values were calculated using Prism software.

The mark [3] stands for this setting: MM1.S cells, 72 hrs treatment, MTS assay.
[4] abbreviates: MM1.S cells, 72 hrs treatment, MTS assay, n=4, read-out: IC50.
Where [5] appears, read: Homo sapiens, MM1.S, 72 h, MM1.S cells, 72 hrs treatment, MTS assay, n=4, read-out: IC50.
[6] abbreviates: dissolved in PBS solution, 37° C. water bath, RP-HPLC.

Like-named read-outs stand apart in the source and are kept apart here.

Consider five compounds from patent US10144761B2, “Chiral specific boron-containing compounds and their use in treating cancer or amyloidosis” (HANLIN SCIENTIFIC, INC., priority 2015, dated 2018).

On to `CC(C)C[C@H](NC(=O)[C@H](Cc1ccccc1)NC(=O)c1cnccn1)B(O)O` [HL01-0, [(1R)-3-methyl-1-[[(2S)-1-oxo-3-phenyl-2[(pyrazinylcarbonyl)amino]propyl]amino]butyl] boronic acid, reference compound], for which the “Stability, Room Temp Dry” value in data set [1] is “−”.

With `CC(C)C[C@H](NC(=O)[C@H](Cc1ccccc1)NC(=O)c1cnccn1)B(O)O` [Bortezomib, reference compound], the “Cytotoxic effects on MM1.S cells (in words)” value (from here on “Cytotoxic effects”) in data set [2] (setting [3]) is “strong cytotoxic effects”. Also, the 50% inhibitory concentration (IC50) (as a rule, the midpoint of a concentration-inhibition curve) in data set [2] (setting [4]) stood at 1.76 nM.

In the case of `CC(C)C[C@H](NC(=O)[C@H](Cc1ccccc1)NC(=O)c1cnccn1)[B-]12OC(=O)C[N+]1(C)CC(=O)O2` (stereo partly drawn) [HL01-11], the IC50 in data set [2] (setting [5]) is around 2 nM; in data set [2] (setting [4]) it was 1.62 nM. The “Cytotoxic effects” value in data set [2] (setting [3]) was “strong cytotoxic effects”. Further, the “Stability, 37° C. H2O/pH 7.4” value in data set [1] (setting [6]) is “+”. Moreover, the “Stability, Room Temp Dry” value in data set [1] was “+”. The “Stability, 30° C./65% Humidity” value in data set [1] (RP-HPLC) is recorded as “+”.

`CC(C)C[C@H](NC(=O)CNC(=O)c1cc(Cl)ccc1Cl)B(O)O` [HL01-17]: the concentration for half-maximal inhibition (IC50) in data set [2] (setting [5]) was determined as 9.45 nM. The “Stability, 37° C. H2O/pH 7.4 (result in words)” value in data set [1] (setting [6]) is given as “Decompose Instant”. Moreover, in data set [1], the “Stability, Room Temp Dry” value is listed as “+”. Besides, the “Stability, 30° C./65% Humidity” value in data set [1] (RP-HPLC) was “−”.

Consider `CC(C)C[C@H](NC(=O)CNC(=O)c1cc(Cl)ccc1Cl)[B-]12OC(=O)C[N+]1(C)CC(=O)O2` (stereo partly drawn) [HL01-15], for which the IC50 in data set [2] (Homo sapiens, MM1.S, 72 h) turned out to be 6.85 nM. The “Cytotoxic effects” value in data set [2] (setting [3]) is given as “weaker than the other compounds”. In addition, the “Stability, 37° C. H2O/pH 7.4” value in data set [1] (setting [6]) is “+”. Besides, in data set [1], the “Stability, Room Temp Dry” value was “+”. The “Stability, 30° C./65% Humidity” value in data set [1] (RP-HPLC) is “+”.
